{
  "source": "patent US10821115B2",
  "about": "“Compounds that inhibit Mcl-1 protein” (priority 2017, dated 2020)",
  "key": {"[1]": {"system": "human multiple myeloma cell line, OPM-2", "test": "Cell viability assay (OPM-2 10 FBS), CellTiter-Glo", "assay_type": "cell-based", "procedure,_shortened": "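Steps: plate cells at 3000/well in 10% FBS growth medium, add serially diluted compound, incubate 16 h at 37 °C with 5% CO2, add detection reagent and read luminescence after 25 min. A 4-parameter logistic model gives IC50.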"}, "[2]": {"target": "recombinant human Mcl-1 (residues 171-327) / Bim interaction (Homo sapiens (Human), UniProt Q07820)", "sequence (Q07820 171-327)": "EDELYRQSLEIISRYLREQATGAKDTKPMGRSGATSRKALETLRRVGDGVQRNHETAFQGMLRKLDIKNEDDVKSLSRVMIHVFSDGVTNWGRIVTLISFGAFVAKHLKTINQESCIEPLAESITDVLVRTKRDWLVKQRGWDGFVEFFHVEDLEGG", "test": "biochemical", "assay_type": "binding", "conditions": "read-out: Mcl-1 HTRF IC50"}, "[3]": {"conditions": "Homo sapiens, OPM-2, 16 h, read-out: OPM-2 10% FBS IC50 IP, OPM-2 cells, 10% FBS, 16 h, CellTiter-Glo"}, "[4]": {"conditions": "TR-FRET, Mcl-1(171-327) / biotin-Bim (51-76)"}, "[5]": {"conditions": "read-out: OPM-2 10% FBS IC50 IP, OPM-2 cells, 10% FBS, 16 h, CellTiter-Glo"}},
  "note": "Where two headings read alike, the source gives them in different places.",
  "data": [
    {"smiles": "C[C@@H]1[C@@H](C)C/C=C/[C@@](O)(COCCN2CCOCC2)[C@@H]2CC[C@H]2CN2C[C@@]3(CCCc4cc(Cl)ccc43)COc3ccc(cc32)C(=O)NS1(=O)=O", "note": "[Example 100355, (1S,3′R,6′R,7′S,8′E,11′S,12′R)-6-chloro-7′-hydroxy-11′,12′-dimethyl-7′-((2-(4-morpholinyl)ethoxy)methyl)-3,4-dihydro-2H,15′H-spiro[naphthalene-1,22′-[20]oxa[13]thia[1,14]diazatetracyclo [14.7.2.0~3,6~.0~19,24~]pentacosa[8,16,18,24]tetraen]-15′-one 13′,13′-dioxide]", "values": [
      {"measurement": "IC50", "setting": "[1]; [3]", "value": 776, "unit": "nM"},
      {"measurement": "IC50", "setting": "[2]; [4]", "value": 0.535, "unit": "nM"}
    ]},
    {"smiles": "C[C@@H]1[C@@H](C)C/C=C/[C@](O)(COCCN2CCOCC2)[C@@H]2CC[C@H]2CN2C[C@@]3(CCCc4cc(Cl)ccc43)COc3ccc(cc32)C(=O)NS1(=O)=O", "note": "[Example 100356, (1S,3′R,6′R,7′R,8′E,11′S,12′R)-6-chloro-7′-hydroxy-11′,12′-dimethyl-7′-((2-(4-morpholinyl)ethoxy)methyl)-3,4-dihydro-2H,15′H-spiro[naphthalene-1,22′-[20]oxa[13]thia[1,14]diazatetracyclo [14.7.2.0~3,6~.0~19,24~]pentacosa[8,16,18,24]tetraen]-15′-one 13′,13′-dioxide]", "values": [
      {"measurement": "IC50", "setting": "[1]; [3]", "value": 71, "unit": "nM"},
      {"measurement": "IC50", "setting": "[2]; [4]", "value": 0.084, "unit": "nM"}
    ]},
    {"smiles": "C[C@@H]1[C@@H](C)C/C=C/[C@@](O)(c2cnccn2)[C@@H]2CC[C@H]2CN2C[C@@]3(CCCc4cc(Cl)ccc43)COc3ccc(cc32)C(=O)NS1(=O)=O", "note": "[Example 100357, (1S,3′R,6′R,7′S,8′E,11′S,12′R)-6-chloro-7′-hydroxy-11′,12′-dimethyl-7′-(2-pyrazinyl)-3,4-dihydro-2H,15′H-spiro[naphthalene-1,22′-[20]oxa[13]thia[1,14]diazatetracyclo [14.7.2.0~3,6~.0~19,24~]pentacosa[8,16,18,24]tetraen]-15′-one 13′,13′-dioxide]", "values": [
      {"measurement": "IC50", "setting": "[1]; [3]", "value": 399, "unit": "nM"},
      {"measurement": "IC50", "setting": "[2]; [4]", "value": 0.224, "unit": "nM"}
    ]},
    {"smiles": "CO[C@]1(C[C@H](O)C(C)C)/C=C/C[C@H](C)[C@@H](C)S(=O)(=O)NC(=O)c2ccc3c(c2)N(C[C@@H]2CC[C@H]21)C[C@@]1(CCCc2cc(Cl)ccc21)CO3", "note": "[Example 100358, (1S,3′R,6′R,7′R,8′E,11′S,12′R)-6-chloro-7′-((2S)-2-hydroxy-3-methylbutyl)-7′-methoxy-11′,12′-dimethyl-3,4-dihydro-2H,15′H-spiro[naphthalene-1,22′-[20]oxa[13]thia[1,14]diazatetracyclo [14.7.2.0~3,6~.0~19,24~]pentacosa[8,16,18,24]tetraen]-15′-one 13′,13′-dioxide]", "values": [
      {"measurement": "IC50", "setting": "[1]; [5]", "value": 81, "unit": "nM"},
      {"measurement": "IC50", "setting": "[2]; [4]", "value": 0.118, "unit": "nM"}
    ]},
    {"smiles": "CO[C@]1(C[C@H](O)C(C)C)/C=C/C[C@H](C)[C@@H](C)S(=O)(=O)NC(=O)c2ccc3c(c2)N(C[C@@H]2CC[C@H]21)C[C@@]1(CCCc2cc(Cl)ccc21)CO3", "note": "[Example 100359, (1S,3′R,6′R,7′R,8′E,11′S,12′R)-6-chloro-7′-((2S)-2-hydroxy-3-methylbutyl)-7′-methoxy-11′,12′-dimethyl-3,4-dihydro-2H,15′H-spiro[naphthalene-1,22′-[20]oxa[13]thia[1,14]diazatetracyclo [14.7.2.0~3,6~.0~19,24~]pentacosa[8,16,18,24]tetraen]-15′-one 13′,13′-dioxide]", "values": [
      {"measurement": "IC50", "setting": "[1]; [5]", "value": 1540, "unit": "nM"},
      {"measurement": "IC50", "setting": "[2]; [4]", "value": 1.2, "unit": "nM"}
    ]},
    {"smiles": "C[C@@H]1[C@@H](C)C/C=C/[C@](O)(c2ccncn2)[C@@H]2CC[C@H]2CN2C[C@@]3(CCCc4cc(Cl)ccc43)COc3ccc(cc32)C(=O)NS1(=O)=O", "note": "[Example 100361, (1S,3′R,6′R,7′R,8′E,11′S,12′R)-6-chloro-7′-hydroxy-11′,12′-dimethyl-7′-(4-pyrimidinyl)-3,4-dihydro-2H,15′H-spiro[naphthalene-1,22′-[20]oxa[13]thia[1,14]diazatetracyclo [14.7.2.0~3,6~.0~19,24~]pentacosa[8,16,18,24]tetraen]-15′-one 13′,13′-dioxide]", "values": [
      {"measurement": "IC50", "setting": "[1]; [3]", "value": 155, "unit": "nM"},
      {"measurement": "IC50", "setting": "[2]; [4]", "value": 0.208, "unit": "nM"}
    ]},
    {"smiles": "CO[C@]1(CC(=O)C(C)C)/C=C/C[C@H](C)[C@@H](C)S(=O)(=O)NC(=O)c2ccc3c(c2)N(C[C@@H]2CC[C@H]21)C[C@@]1(CCCc2cc(Cl)ccc21)CO3", "note": "[Example 100363, (1S,3′R,6′R,7′R,8′E,11′S,12′R)-6-chloro-7′-methoxy-11′,12′-dimethyl-7′-(3-methyl-2-oxobutyl)-3,4-dihydro-2H,15′H-spiro[naphthalene-1,22′-[20]oxa[13]thia[1,14]diazatetracyclo [14.7.2.0~3,6~.0~19,24~]pentacosa[8,16,18,24]tetraen]-15′-one 13′,13′-dioxide]", "values": [
      {"measurement": "IC50", "setting": "[1]; [3]", "value": 3810, "unit": "nM"},
      {"measurement": "IC50", "setting": "[2]", "value": 1.38, "unit": "nM"}
    ]},
    {"smiles": "CO[C@@]1(CCOS(C)(=O)=O)/C=C/C[C@H](C)[C@@H](C)S(=O)(=O)NC(=O)c2ccc3c(c2)N(C[C@@H]2CC[C@H]21)C[C@@]1(CCCc2cc(Cl)ccc21)CO3", "note": "[Example 100364, 2-((1S,3′R,6′R,7′S,8′E,11′S,12′R)-6-chloro-7′-methoxy-11′,12′-dimethyl-13′,13′-dioxido-15′-oxo-3,4-dihydro-2H-spiro[naphthalene-1,22′-[20]oxa[13]thia[1,14]diazatetracyclo [14.7.2.0~3,6~.0~19,24~]pentacosa[8,16,18,24]tetraen]-7′-yl)ethyl methanesulfonate]", "values": [
      {"measurement": "IC50", "setting": "[1]; [3]", "value": 1680, "unit": "nM"},
      {"measurement": "IC50", "setting": "[2]; [4]", "value": 1.16, "unit": "nM"}
    ]},
    {"smiles": "CO[C@]1(CCN2CCOCC2)/C=C/C[C@H](C)[C@@H](C)S(=O)(=O)NC(=O)c2ccc3c(c2)N(C[C@@H]2CC[C@H]21)C[C@@]1(CCCc2cc(Cl)ccc21)CO3", "note": "[Example 100365, (1S,3′R,6′R,7′R,8′E,11′S,12′R)-6-chloro-7′-methoxy-11′,12′-dimethyl-7′-(2-(4-morpholinyl)ethyl)-3,4-dihydro-2H,15′H-spiro[naphthalene-1,22′-[20]oxa[13]thia[1,14]diazatetracyclo [14.7.2.0~3,6~.0~19,24~]pentacosa[8,16,18,24]tetraen]-15′-one 13′,13′-dioxide]", "values": [
      {"measurement": "IC50", "setting": "[1]; [3]", "value": 245, "unit": "nM"},
      {"measurement": "IC50", "setting": "[2]; [4]", "value": 0.257, "unit": "nM"}
    ]},
    {"smiles": "C[C@@H]1[C@@H](C)C/C=C/[C@](O)(c2ccncc2F)[C@@H]2CC[C@H]2CN2C[C@@]3(CCCc4cc(Cl)ccc43)COc3ccc(cc32)C(=O)NS1(=O)=O", "note": "[Example 100368, (1S,3′R,6′R,7′R,8′E,11′S,12′R)-6-chloro-7′-(3-fluoro-4-pyridinyl)-7′-hydroxy-11′,12′-dimethyl-3,4-dihydro-2H,15′H-spiro[naphthalene-1,22′-[20]oxa[13]thia[1,14]diazatetracyclo [14.7.2.0~3,6~.0~19,24~]pentacosa[8,16,18,24]tetraen]-15′-one 13′,13′-dioxide]", "values": [
      {"measurement": "IC50", "setting": "[1]; [3]", "value": 611, "unit": "nM"},
      {"measurement": "IC50", "setting": "[2]; [4]", "value": 0.377, "unit": "nM"}
    ]},
    {"smiles": "COCC[C@]1(OC)/C=C/C[C@H](C)[C@@H](C)S(=O)(=O)NC(=O)c2ccc3c(c2)N(C[C@@H]2CC[C@H]21)C[C@@]1(CCCc2cc(Cl)ccc21)CO3", "note": "[Example 100369, (1S,3′R,6′R,7′S,8′E,11′S,12′R)-6-chloro-7′-methoxy-7′-(2-methoxyethyl)-11′,12′-dimethyl-3,4-dihydro-2H,15′H-spiro[naphthalene-1,22′-[20]oxa[13]thia[1,14]diazatetracyclo [14.7.2.0~3,6~.0~19,24~]pentacosa[8,16,18,24]tetraen]-15′-one 13′,13′-dioxide]", "values": [
      {"measurement": "IC50", "setting": "[1]; [3]", "value": 9920, "unit": "nM"},
      {"measurement": "IC50", "setting": "[2]; [4]", "value": 2.83, "unit": "nM"}
    ]}
  ]
}
